The target in series [1] is 3',5'-cyclic-AMP phosphodiesterase 4D (Homo sapiens, UniProt Q08499). The experiment in a line: Inhibition of human PDE4D2 (86 to 413 residues) expressed in Escherichia coli BL21 codon-plus cells using [3H]cAMP as substrate incubated for 15 mins by liquid scintillation counting method.
For series [2], the system named is Mus musculus. Kind of series: Anti-VaD activity against UCCAO-induced spatial memory deficient C57BL/6J mouse model assessed as improvement in spatial learning and memory by measuring increase in frequency of platform area crossings at 0.7 mg/kg, po administered for 21 days by Morris water maze test. Type of series: functional, organism-based.
The subject of series [3] is Mus musculus. Kind of series: Anti-VaD activity against UCCAO-induced spatial memory deficient C57BL/6J mouse model assessed as improvement in spatial learning and memory by measuring increase in residence time on the platform at 0.7 mg/kg, po administered for 21 days by Morris water maze test. Type of series: functional, organism-based.
The test system of series [4] is Mus musculus. The experiment in a line: Anti-VaD activity against UCCAO-induced spatial memory deficient C57BL/6J mouse model assessed as improvement in spatial learning and memory by measuring reduction in escape latency at 0.7 mg/kg, po administered for 21 days by Morris water maze test. Type of series: functional, organism-based.
The nature of series [5]: Toxicity in Beagle dog assessed as animals exhibiting emesis at 1 mg/kg, po observed for 180 mins. In kind it is organism-based, Canis lupus familiaris. The settings on record: in vivo, 3 h.
Series [6] concerns the target Phosphodiesterase isozyme 4 (Homo sapiens, UniProt Q86V67). Kind of series: Inhibition of PDE4 (unknown origin).

Active and inactive are the calls of the source. No cut-off for these calls is given here.

IC50 and Activity data for 28 molecules are collected here from ChEMBL document CHEMBL4402573, “Discovery and Optimization of α-Mangostin Derivatives as Novel PDE4 Inhibitors for the Treatment of Vascular Dementia” (J Med Chem, 2020).

Broadly, the IC50 is the concentration that gives 50% inhibition.

3',5'-cyclic-AMP phosphodiesterase 4D, sequence (Q08499 whole entry, the tested form may be a part): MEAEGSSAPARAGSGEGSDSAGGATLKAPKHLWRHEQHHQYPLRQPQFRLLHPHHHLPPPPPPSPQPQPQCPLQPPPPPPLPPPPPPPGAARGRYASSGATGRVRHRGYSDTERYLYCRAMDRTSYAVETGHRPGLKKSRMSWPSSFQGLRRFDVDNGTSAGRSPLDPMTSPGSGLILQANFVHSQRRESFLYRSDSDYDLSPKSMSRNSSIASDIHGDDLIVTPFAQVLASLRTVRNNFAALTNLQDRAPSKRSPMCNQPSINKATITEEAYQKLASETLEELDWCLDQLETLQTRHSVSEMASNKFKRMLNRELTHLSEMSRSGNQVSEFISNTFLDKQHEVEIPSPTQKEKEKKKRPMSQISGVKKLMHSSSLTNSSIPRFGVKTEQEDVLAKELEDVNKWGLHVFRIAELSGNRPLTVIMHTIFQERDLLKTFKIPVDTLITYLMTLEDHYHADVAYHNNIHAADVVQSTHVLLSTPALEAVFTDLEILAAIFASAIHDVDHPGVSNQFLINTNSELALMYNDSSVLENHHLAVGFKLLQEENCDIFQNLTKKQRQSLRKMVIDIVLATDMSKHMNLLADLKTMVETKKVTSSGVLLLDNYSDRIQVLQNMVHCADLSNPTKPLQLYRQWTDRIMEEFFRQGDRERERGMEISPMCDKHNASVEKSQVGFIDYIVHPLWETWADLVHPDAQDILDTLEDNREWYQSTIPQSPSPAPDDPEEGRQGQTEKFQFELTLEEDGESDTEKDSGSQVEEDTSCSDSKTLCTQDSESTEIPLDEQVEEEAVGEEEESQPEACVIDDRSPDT
Phosphodiesterase isozyme 4, sequence (Q86V67 whole entry): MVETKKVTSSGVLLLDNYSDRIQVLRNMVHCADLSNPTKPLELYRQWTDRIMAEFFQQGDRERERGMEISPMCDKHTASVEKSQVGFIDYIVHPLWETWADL

Turning to `COc1c(OCC(=O)O)cc2oc3cc4c(c(O)c3c(=O)c2c1CC=C(C)C)C=CC(C)(C)O4`, the IC50 in series [1] amounted to 480 nM. With `COc1c(OCCCCN2CCCC2)cc2oc3cc4c(c(O)c3c(=O)c2c1CC=C(C)C)C=CC(C)(C)O4`, the IC50 in series [1] came to 622 nM. Same read-out and setting: to `CCOC(=O)CCCCCCOc1cc2oc3cc4c(c(O)c3c(=O)c2c(CC=C(C)C)c1OC)C=CC(C)(C)O4` belongs greater than 10000 nM; to `COc1c(OCCCCCC(=O)O)cc2oc3cc4c(c(O)c3c(=O)c2c1CC=C(C)C)C=CC(C)(C)O4`, 76 nM. With `COc1c(OCCCBr)cc2oc3cc4c(c(O)c3c(=O)c2c1CC=C(C)C)C=CC(C)(C)O4`, the IC50 in series [1] is greater than 10000 nM.

For the molecule `CCOC(=O)CCCOc1cc2oc3cc4c(c(O)c3c(=O)c2c(CC=C(C)C)c1OC)C=CC(C)(C)O4`, in series [1], the IC50 is greater than 10000 nM.

Turning to `COc1cc2c(cc1OC)C(=O)C(CC1CCN(Cc3ccccc3)CC1)C2` (stereo not given), the outcome in the series on Mus musculus [2], in the series with Mus musculus [3] and with Mus musculus [4] was Active. For the molecule `CCOC(=O)COc1cc2oc3cc4c(c(O)c3c(=O)c2c(CC=C(C)C)c1OC)C=CC(C)(C)O4`, in series [1], the IC50 was greater than 10000 nM. For the molecule `COc1ccc(C2CNC(=O)C2)cc1OC1CCCC1` (stereo not given) [ROLIPRAM], the Activity in series [5] was found to be 100%.

On to `CCOC(=O)CCCCCCCCOc1cc2oc3cc4c(c(O)c3c(=O)c2c(CC=C(C)C)c1OC)C=CC(C)(C)O4`, for which, in series [1], the concentration for half-maximal inhibition (IC50) is greater than 10000 nM. Still for that read-out and setting: to `COc1c(O)cc2oc3cc4c(c(O)c3c(=O)c2c1CC=C(C)C)C=CC(C)(C)O4` [MANGOSTANIN] belongs 420 nM. For `COc1c(OCCCCCBr)cc2oc3cc4c(c(O)c3c(=O)c2c1CC=C(C)C)C=CC(C)(C)O4`, in series [1], the IC50 was greater than 10000 nM. In the case of `C=C(C)[C@@H]1CC[C@]2(C(=O)O)CC[C@]3(C)[C@H](CC[C@@H]4[C@@]5(C)CC[C@H](O)C(C)(C)[C@@H]5CC[C@]43C)[C@@H]12` [BETULINIC ACID], 125000 nM corresponded to half-maximal inhibition in series [6] (IC50). For the molecule `COc1c(OCCCCBr)cc2oc3cc4c(c(O)c3c(=O)c2c1CC=C(C)C)C=CC(C)(C)O4`, in series [1], the concentration for half-maximal inhibition (IC50) is greater than 10000 nM. Still for that read-out and setting: to `CCOC(=O)CCCCOc1cc2oc3cc4c(c(O)c3c(=O)c2c(CC=C(C)C)c1OC)C=CC(C)(C)O4` belongs greater than 10000 nM. Take `COc1c(O)cc2oc3cc(O)c(CC=C(C)C)c(O)c3c(=O)c2c1CC=C(C)C` [MANGOSTIN]: the concentration for half-maximal inhibition (IC50) in series [1] is 1310 nM. On the same count and under the same terms, to `COc1c(OCCCCCCCBr)cc2oc3cc4c(c(O)c3c(=O)c2c1CC=C(C)C)C=CC(C)(C)O4` belongs greater than 10000 nM. Still for that read-out and setting: to `COc1c(OCCCCCN2CCCC2)cc2oc3cc4c(c(O)c3c(=O)c2c1CC=C(C)C)C=CC(C)(C)O4` belongs 200 nM; to `COc1c(OCCCCCCCCC(=O)O)cc2oc3cc4c(c(O)c3c(=O)c2c1CC=C(C)C)C=CC(C)(C)O4`, 58 nM; to `COc1c(OCCCCCCBr)cc2oc3cc4c(c(O)c3c(=O)c2c1CC=C(C)C)C=CC(C)(C)O4`, greater than 10000 nM.

Turning to `CCOC(=O)CCCCCCCOc1cc2oc3cc4c(c(O)c3c(=O)c2c(CC=C(C)C)c1OC)C=CC(C)(C)O4`, the IC50 in series [1] was greater than 10000 nM. Same read-out and setting: to `COc1c(OCCCCC(=O)O)cc2oc3cc4c(c(O)c3c(=O)c2c1CC=C(C)C)C=CC(C)(C)O4` belongs 99 nM; to `COc1c(OCCCCCCN2CCCC2)cc2oc3cc4c(c(O)c3c(=O)c2c1CC=C(C)C)C=CC(C)(C)O4`, 99 nM.

`COc1c(OCCCCCCCN2CCCC2)cc2oc3cc4c(c(O)c3c(=O)c2c1CC=C(C)C)C=CC(C)(C)O4`: in series [1], the concentration for half-maximal inhibition (IC50) stood at 148 nM. On the same count and under the same terms, to `COc1c(OCCCCCCCC(=O)O)cc2oc3cc4c(c(O)c3c(=O)c2c1CC=C(C)C)C=CC(C)(C)O4` belongs 16 nM; to `CCOC(=O)CCCCCOc1cc2oc3cc4c(c(O)c3c(=O)c2c(CC=C(C)C)c1OC)C=CC(C)(C)O4`, greater than 10000 nM; to `COc1c(OCCCC(=O)O)cc2oc3cc4c(c(O)c3c(=O)c2c1CC=C(C)C)C=CC(C)(C)O4`, 44 nM. As to `COc1c(OCCCN2CCCC2)cc2oc3cc4c(c(O)c3c(=O)c2c1CC=C(C)C)C=CC(C)(C)O4`, in series [1], the half-maximal inhibitory concentration (IC50) was greater than 1000 nM.
